In the NIST ThermoML archive (doi:10.1016/j.fluid.2015.03.030):

Experiment: Boiling temperature at pressure P
Settings: Liquid, Ebulliometric method (Recirculating still)

O=C1OC(=O)c2cc(Cl)ccc21 [4-chlorophthalic anhydride]
Settings | Boiling temperature at pressure P [°C]
3.412 kPa | 174.12
4.468 kPa | 181.16
5.15 kPa | 184.99
5.626 kPa | 187.38
6.455 kPa | 191.23
7.207 kPa | 194.4
8.268 kPa | 198.19
9.221 kPa | 201.31
10.66 kPa | 205.62
11.74 kPa | 208.48
12.99 kPa | 211.60
14.48 kPa | 214.97
15.93 kPa | 217.97
17.17 kPa | 220.36
18.59 kPa | 222.89
20.24 kPa | 225.72
21.71 kPa | 228.1
23.52 kPa | 230.67
25.37 kPa | 233.31
27.38 kPa | 235.90
29.59 kPa | 238.67
31.99 kPa | 241.41
34.47 kPa | 244.18
37.26 kPa | 247.0
40.2 kPa | 249.76
43.82 kPa | 252.96
46.79 kPa | 255.48
50.5 kPa | 258.40
54.42 kPa | 261.32
58.75 kPa | 264.30
63.31 kPa | 267.29
68.3 kPa | 270.4
72.98 kPa | 273.1
79.29 kPa | 276.50
86.41 kPa | 280.09
92.12 kPa | 282.82
99.1 kPa | 286.02
101 kPa | 287

O=C1OC(=O)c2cc(F)ccc21 [5-fluoro-1,3-isobenzofurandione]
Settings | Boiling temperature at pressure P [°C]
3.549 kPa | 153.68
4.301 kPa | 158.39
5.517 kPa | 164.86
6.582 kPa | 169.60
7.86 kPa | 174.33
8.973 kPa | 178.04
10.5 kPa | 182.54
12.25 kPa | 187.07
13.2 kPa | 189.31
15.16 kPa | 193.52
17.63 kPa | 198.20
18.81 kPa | 200.23
21.16 kPa | 204.02
23.05 kPa | 206.79
26 kPa | 210.78
31.21 kPa | 216.91
36.41 kPa | 222.26
40.95 kPa | 226.48
45.02 kPa | 229.90
47.3 kPa | 231.69
48.21 kPa | 232.43
51.3 kPa | 234.71
53.29 kPa | 236.12
55.87 kPa | 237.93
57.3 kPa | 238.87
59.62 kPa | 240.39
65.49 kPa | 244.02
69.16 kPa | 246.14
73.58 kPa | 248.63
78.49 kPa | 251.18
85.68 kPa | 254.76
90.57 kPa | 257.03
93.83 kPa | 258.51
96.02 kPa | 259.49
97.24 kPa | 260.02
101.21 kPa | 261.70
